Data taken from article PMC5244594 (Biotechnology for Biofuels, 2017).

Target: T1, GLT-1 (Neurospora crassa, UniProt Q1K4S3)
T1 construct: gene NCU01633
Test: radiolabeled glucose uptake in S. cerevisiae EBY.VW4000
Format: cell-based
Details: labelled compound; transport into whole yeast cells expressing the eGFP fusion

T1 sequence (Q1K4S3 entry or part of it): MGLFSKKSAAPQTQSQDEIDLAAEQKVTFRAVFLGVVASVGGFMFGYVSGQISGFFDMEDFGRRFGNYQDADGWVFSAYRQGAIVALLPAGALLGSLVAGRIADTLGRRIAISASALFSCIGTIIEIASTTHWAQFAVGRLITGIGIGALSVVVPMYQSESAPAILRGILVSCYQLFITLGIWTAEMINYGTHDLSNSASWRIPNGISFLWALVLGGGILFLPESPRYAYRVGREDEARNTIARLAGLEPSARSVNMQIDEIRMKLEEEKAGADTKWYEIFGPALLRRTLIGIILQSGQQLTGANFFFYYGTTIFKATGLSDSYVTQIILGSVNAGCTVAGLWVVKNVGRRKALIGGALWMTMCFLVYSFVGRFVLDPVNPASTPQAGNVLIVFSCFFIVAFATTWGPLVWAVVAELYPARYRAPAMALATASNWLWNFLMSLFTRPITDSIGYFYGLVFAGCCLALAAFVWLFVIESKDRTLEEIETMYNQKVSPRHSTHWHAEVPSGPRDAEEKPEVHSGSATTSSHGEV

- Km: 18.4 ± 3.38 mM
SMILES: OC[C@H]1OC(O)[C@H](O)[C@@H](O)[C@@H]1O (stereo partly shown) [glucose]
